[invdT] = inverted (3'-3') thymidine; {TYE665} = TYE665 fluorescent dye
Experiments:
[1] = molecular target: T1, native EpCAM protein expressed on the cell surface (HEY cells) (Homo sapiens, UniProt P16422); test: Flow cytometry binding assay on HEY cells (EpCAM-positive); details: HEY (EpCAM-positive) cells, flow cytometry, n=3
T1 construct: host or cells: HEY ovarian cancer cells
T1 sequence (P16422 24-314): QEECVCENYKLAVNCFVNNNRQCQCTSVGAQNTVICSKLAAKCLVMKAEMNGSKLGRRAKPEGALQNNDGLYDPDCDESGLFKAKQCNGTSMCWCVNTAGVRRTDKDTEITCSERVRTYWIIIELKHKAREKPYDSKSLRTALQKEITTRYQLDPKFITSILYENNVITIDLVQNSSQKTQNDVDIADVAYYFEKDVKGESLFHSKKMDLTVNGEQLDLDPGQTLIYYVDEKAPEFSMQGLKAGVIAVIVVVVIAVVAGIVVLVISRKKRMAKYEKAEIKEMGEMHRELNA
Experimental: In order to determine the binding affinity (equilibrium dissociation constant KD) of the aptamers. Binding assays were conducted to measure the binding to native EpCAM protein expressed on the cell surface. The aptamers were incubated with the cells at concentrations ranging from 0 nM to 400 nM. These were subsequently analysed by flow cytometry. Aptamers were thawed from storage (−20° C.) prior to use. These were then diluted via serial dilutions with phosphate buffered saline (PBS) in order to achieve the desired concentrations. PBS was supplemented with a MgCl2 concentration appropriate for the aptamer (1 mM for anti-TfR aptamers; 5 mM for conjugate aptamers). Aptamers were then folded into their 3D structures using a thermocycler (85° C. for 5 minutes, slow cooling to 22° C. over 10 minutes and 37° C. for 15 minutes).
Concurrently, subcultured cells were incubated in blocking buffer (PBS with 10% FCS, 1 mg/mL BSA, 0.1 mg/mL tRNA) for 30 minutes. Following centrifugation, blocking buffer was removed and cells were resuspended in binding buffer (PBS with 10% FCS, 1 mg/mL BSA, 0.1 mg/mL tRNA). Cells (50 μL) were then incubated with the aptamers (50 μL) for 30 minutes at 37° C. at a range of concentrations (0 nM, 20 nM, 40 nM, 60 nM, 80 nM, 100 nM, 200 nM, 400 nM). Following this, cells were washed in 100 μL PBS three times before final resuspension for flow cytometry.
Aptamers were incubated with the chosen cell lines (bEnd.3 cells, mouse cells positive for TfR; HEY cells, human ovarian cancer cell line positive for EpCAM; and MOLT4 human cells negative for both TfR and EpCAM) at a range of concentrations. Aptamer-bound cells were analysed using a FACS Canto II flow cytometer (Becton Dickinson), counting 10,000 events for each sample, in order to determine the binding affinity of the aptamers. […] The value for the auto fluorescent 0 nM concentration was subtracted from the other figures to account for background fluorescence (Li N et al (2009) Journal of Proteome Research 8(5):2438-48). The resultant values were then used to determine the dissociation constant (KD) via the Graph Pad Prism 3 software. […]
The binding affinities of aptamers Bi1, Bi2 and Bi3 were determined semi-quantitatively via flow cytometry, using bEnd.3 cells to assess reactivity with TfR, HEY cells to determine EpCAM specificity and the MOLT4 cell line as a negative control. Three independent binding assays were performed for these aptamer against all three cell lines (bEnd.3, HEY and MOLT4). […]

[2] = molecular target: T2, native EpCAM protein expressed on the cell surface (HT29 cells) (Homo sapiens, UniProt P16422); test: Flow cytometry binding assay on HT29 cells (EpCAM-positive); details: n=3
T2 construct: endogenous in cells; host or cells: HT29 cells
T2 sequence (P16422 24-314): T1 sequence (P16422 24-314)
Experimental: (§1) The equilibrium dissociation constant (KD) of each DNA EpCAM aptamer (Ep7, Ep8 and Ep9) was determined by measuring its binding to native EpCAM protein expressed on the cell surface using flow cytometry. HT29, HEY and HEK293T (5×10^5) cells were first incubated with blocking buffer (PBS containing 10% FCS, 1 mg/mL tRNA, 1 mg/mL BSA) for 30 minutes followed by a single wash with binding buffer (PBS containing 10% FCS, 1 mg/mL tRNA, 1 mg/mL BSA) prior to incubation with serial dilutions of concentrations of the respective TYE665-labelled aptamers (0 to 200 nM) in binding buffer for 30 min at 37° C. The cells were washed three times with PBS and resuspended in PBS prior to flow cytometric analysis. The fluorescent intensity was determined using a FACS Canto II flow cytometer (Becton Dickinson), counting 10,000 events for each sample. The mean fluorescent intensity of each concentration was […] the auto fluorescent control and the KD for each aptamer was calculated from the normalised values for fluorescent intensity.

[3] = Doxorubicin loading efficiency by fluorescence spectroscopy; details: mean±SEM
Description: The anthracycline class of drugs, including DOX, have fluorescence properties that become quenched after intercalation into DNA (Valentini L et al (1985) II Farmaco edizione scientifica 40(6):377-90. The natural fluorescence of doxorubicin and its subsequent quenching after intercalating with the DNA EpCAM aptamers was utilised for the measurement of the extent of doxorubicin conjugation via Fluorescent Spectroscopy. The conjugation process was studied using different aptamer-doxorubicin molar ratios (0, 0.01, 0.04, 0.08, 0.1, 0.2, 0.3, 0.4, 0.5, and 0.6) and analysed with a fluorescence plate reader based on a standard curve of free doxorubicin.
Prior to conjugation, aptamers were prepared for application as previously described. DOX was then combined with aptamer in conjugation buffer containing 0.1 M sodium acetate, 0.05 M NaCl, and 5 mM MgCl2 and incubated at 37° C. in an Orbital mixer/incubator (RATEK) for 1 hour with agitation (75 r.p.m). The conjugate was then passed through a Sephadex®G-10 medium column (Sigma-Aldrich) to separate the aptamer: doxorubicin conjugate from free DOX. As DOX has a natural fluorescence which is subsequently quenched following intercalation into double stranded DNA, this characteristic of DOX was exploited to determine the amount of DOX that was intercalated into the double stranded stem region of the conjugate aptamers. After column separation, DOX was extracted from the conjugate yield by adding 150 uL of acetonitrile. This solution was then centrifuged for 5 min at 21,000 g. Eighty microliters of supernatant was removed and fluorescent intensity was quantified with a fluorescent plate reader. A calibration standard curve was prepared with known concentrations of DOX under the same condition
Data was analysed using Graph Pad Prism 3 and data was reported as mean and standard error of the mean (mean±SEM) unless otherwise stated.

[4] = system: HEK293T and K562; test: Flow cytometry binding to EpCAM negative cell lines; details: HEK293T and K562, 0 and 100 nM
Experimental: as §1

[5] = system: HT29 and HEY cells; test: Confocal microscopy internalisation of EpCAM aptamers into EpCAM positive cells; assay type: cell-based; details: 200 nM, 60 min
Experimental: The ability of each DNA EpCAM aptamer to be internalised was established through confocal microscopy. HT29, HEY, K652 and HEK293T were seeded at 8×10^5 cells per well in 8-chamber slide for 24 h in preparation for confocal […]. Cells were incubated with blocking buffer for 60 min, followed by resuspension in binding buffer and containing 200 nM EpCAM aptamer or negative control aptamer and incubated for 60 min at 37° C. Bisbenzimide Hoechst 33342 (3 mg/ml) (Sigma) was added to the cells during the final 10 min of incubation. The aptamer solution was removed and the cells were washed three times for 5 min each in PBS prior to visualisation using a FluoView FV10i laser scanning confocal microscope (Olympus).

[6] = molecular target: T3, mouse TfR (Mus musculus, UniProt Q62351); test: Flow cytometry binding assay on bEnd.3 cells (TfR-positive); details: bEnd.3 (TfR-positive) cells, n=3
T3 construct: bEnd.3 cells, mouse cells positive for TfR; host or cells: bEnd.3 mouse cerebral endothelial cells
T3 sequence (Q62351 whole entry): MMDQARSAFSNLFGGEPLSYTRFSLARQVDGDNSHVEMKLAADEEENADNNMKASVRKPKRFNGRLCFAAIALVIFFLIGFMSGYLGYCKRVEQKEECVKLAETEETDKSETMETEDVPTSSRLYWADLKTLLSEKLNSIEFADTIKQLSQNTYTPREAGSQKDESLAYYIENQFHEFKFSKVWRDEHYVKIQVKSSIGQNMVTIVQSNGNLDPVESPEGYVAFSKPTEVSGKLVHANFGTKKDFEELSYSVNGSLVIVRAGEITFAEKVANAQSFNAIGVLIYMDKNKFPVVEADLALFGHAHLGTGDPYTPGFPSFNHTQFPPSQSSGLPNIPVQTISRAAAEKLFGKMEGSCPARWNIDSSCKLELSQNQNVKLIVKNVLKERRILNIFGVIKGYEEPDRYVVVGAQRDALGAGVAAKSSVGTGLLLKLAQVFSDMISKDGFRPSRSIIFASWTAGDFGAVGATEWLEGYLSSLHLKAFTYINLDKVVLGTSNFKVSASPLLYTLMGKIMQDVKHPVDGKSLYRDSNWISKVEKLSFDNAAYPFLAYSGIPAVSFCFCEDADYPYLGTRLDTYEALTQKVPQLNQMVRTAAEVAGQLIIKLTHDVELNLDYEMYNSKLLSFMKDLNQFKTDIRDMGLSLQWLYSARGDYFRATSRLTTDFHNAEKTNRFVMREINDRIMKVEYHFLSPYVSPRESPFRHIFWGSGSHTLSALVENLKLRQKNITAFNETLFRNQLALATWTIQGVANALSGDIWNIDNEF
Experimental: In order to determine the binding affinity (equilibrium dissociation constant KD) of the aptamers. Binding assays were conducted to measure the binding to native EpCAM protein expressed on the cell surface. The aptamers were incubated with the cells at concentrations ranging from 0 nM to 400 nM. These were subsequently analysed by flow cytometry. Aptamers were thawed from storage (-20° C.) prior to use. These were then diluted via serial dilutions with phosphate buffered saline (PBS) in order to achieve the desired concentrations. PBS was supplemented with a MgCl2 concentration appropriate for the aptamer (1 mM for anti-TfR aptamers; 5 mM for conjugate aptamers). […] Concurrently, subcultured cells were incubated in blocking buffer (PBS with 10% FCS, 1 mg/mL BSA, 0.1 mg/mL tRNA) for 30 minutes. Following centrifugation, blocking buffer was removed and cells were resuspended in binding buffer (PBS with 10% FCS, 1 mg/mL BSA, 0.1 mg/mL tRNA). Cells (50 μL) were then incubated with the aptamers (50 μL) for 30 minutes at 37° C. at a range of concentrations (0 nM, 20 nM, 40 nM, 60 nM, 80 nM, 100 nM, 200 nM, 400 nM). Following this, cells were washed in 100 μL PBS three times before final resuspension for flow cytometry. Aptamers were incubated with the chosen cell lines (bEnd.3 cells, mouse cells positive for TfR; HEY cells, human ovarian cancer cell line positive for EpCAM; and MOLT4 human cells negative for both TfR and EpCAM) at a range of concentrations. Aptamer-bound cells were analysed using a FACS Canto II flow cytometer (Becton Dickinson), counting 10,000 events for each sample, in order to determine the binding affinity of the aptamers. […] The value for the auto fluorescent 0 nM concentration was subtracted from the other figures to account for background fluorescence (Li N et al (2009) Journal of Proteome Research 8(5):2438-48). […] The binding affinities of aptamers TfR1, TfR2, […] determined semi-quantitatively via flow cytometry, using bEnd.3 mouse cerebral endothelial cells as a Tf R-positive cell line and MOLT4 acute lymphoblastic leukaemia cells-which express the human TfR, but not the mouse TfR (Sutherland R et al (1981) PNAS 78(7):4515-9)-as a negative control. Three independent binding assays were performed for each aptamer against each cell line. […] Three independent binding assays were performed for these aptamer against all three cell lines (bEnd.3, HEY and MOLT4).

Row | Substance | Kd [1] [nM] | Kd [2] [nM] | Molar ratio aptamer:dox [3] | Binding to EpCAM negative cell lines [4] | Internalisation by EpCAM positive cells [5] | Kd [6] [nM]
1 | 5′ CACTACAGAGGTTGCGTCTGTCCCACGTTGTCATGGGGGGTTGGCCTG 3′ (CACTACAGAGGTTGCGTCTGTCCCACGTTGTCATGGGGGGTTGGCCTG; listed as DNA, chemistry not fully specified) [Full length EpCAM aptamer, reference compound] | 495 ± 147 | 9 ± 1.68 | 0.53 ± 0.13 |  |  | 
2 | Ep7: truncated DNA EpCAM aptamer derived from SYL3C, SEQ ID NO:9 (ACAGAGGTTGCGTCTG; DNA, [invdT] at 3' end, 5' {TYE665}, backbone not given here) | 248 ± 82.2 | 11 ± 2.79 | 0.42 ± 0.11 | did not bind | internalised | 
3 | Ep8: truncated DNA EpCAM aptamer derived from SYL3C, SEQ ID NO:11 (CCCACGTTGTCATGGG; DNA, 5' {TYE665}, 3' [invdT], backbone not given here) | 696 ± 486 | 6.19 ± 2.24 | 0.38 ± 0.06 | did not bind | internalised | 
4 | Ep9: truncated DNA EpCAM aptamer derived from SYL3C, SEQ ID NO:12 (GGGGTTGGCCCC; DNA, 5' {TYE665}, 3' [invdT], backbone not given here) | 266 ± 121 | 31.8 ± 7.65 | 0.35 ± 0.06 | did not bind | internalised | 
5 | Ex Ep7: extended Ep7 aptamer with the same binding loop as Ep7, SEQ ID NO:13 (CGCGCGCCGCAGGTTGCGTGCGGCGCGCG; DNA, 5' {TYE665}, 3' [invdT], backbone not given here) | 63.7 ± 14.4 |  | 1.17 ± 0.02 |  | internalised | 
6 | Scr Ex Ep7: scrambled extended Ep7 aptamer with randomly selected base pairs in the binding loop, SEQ ID NO:14 (CGCGCGCCGCATTCCTTTTGCGGCGCGCG; DNA, 5' {TYE665}, 3' [invdT], backbone not given here) | 521 ± 272 |  | 1.01 ± 0.01 |  | not internalised | 
7 | TfR1: truncated fourteen nucleotide DNA aptamer against mouse TfR, SEQ ID NO:4 (GCGTGTGCACACGC; DNA, backbone not given here; further chemistry not fully specified) |  |  |  |  |  | 5760 ± 7120
8 | TfR2: version of TfR1 with scrambled binding loop sequence, SEQ ID NO:5 (DNA GCGTGGGCCCACGC; DNA, backbone not given here; further chemistry not fully specified) |  |  |  |  |  | 525 ± 161
